Assay results taken from ChEMBL document CHEMBL3727374, “Compounds, pharmaceutical compositions, and methods of treating or preventing neurodegenerative diseases or disorders” (2012).
Calls of active or inactive are those of the source. The rule behind the calls is not given here.

Legend:
Huntingtin = Huntingtin (Homo sapiens, UniProt P42858); assay: Inhibition of GFP-fused Huntingtin protein Q103/Q25 mutant (unknown origin) […] assessed as protection against huntingtin protein aggregation incubated for 48 hrs by multiplexed assay based HTT f3(agr) method; format: cell-based; settings: pc-12
Huntingtin, sequence (P42858 whole entry, looked up, stated change not applied, the tested form may be a part): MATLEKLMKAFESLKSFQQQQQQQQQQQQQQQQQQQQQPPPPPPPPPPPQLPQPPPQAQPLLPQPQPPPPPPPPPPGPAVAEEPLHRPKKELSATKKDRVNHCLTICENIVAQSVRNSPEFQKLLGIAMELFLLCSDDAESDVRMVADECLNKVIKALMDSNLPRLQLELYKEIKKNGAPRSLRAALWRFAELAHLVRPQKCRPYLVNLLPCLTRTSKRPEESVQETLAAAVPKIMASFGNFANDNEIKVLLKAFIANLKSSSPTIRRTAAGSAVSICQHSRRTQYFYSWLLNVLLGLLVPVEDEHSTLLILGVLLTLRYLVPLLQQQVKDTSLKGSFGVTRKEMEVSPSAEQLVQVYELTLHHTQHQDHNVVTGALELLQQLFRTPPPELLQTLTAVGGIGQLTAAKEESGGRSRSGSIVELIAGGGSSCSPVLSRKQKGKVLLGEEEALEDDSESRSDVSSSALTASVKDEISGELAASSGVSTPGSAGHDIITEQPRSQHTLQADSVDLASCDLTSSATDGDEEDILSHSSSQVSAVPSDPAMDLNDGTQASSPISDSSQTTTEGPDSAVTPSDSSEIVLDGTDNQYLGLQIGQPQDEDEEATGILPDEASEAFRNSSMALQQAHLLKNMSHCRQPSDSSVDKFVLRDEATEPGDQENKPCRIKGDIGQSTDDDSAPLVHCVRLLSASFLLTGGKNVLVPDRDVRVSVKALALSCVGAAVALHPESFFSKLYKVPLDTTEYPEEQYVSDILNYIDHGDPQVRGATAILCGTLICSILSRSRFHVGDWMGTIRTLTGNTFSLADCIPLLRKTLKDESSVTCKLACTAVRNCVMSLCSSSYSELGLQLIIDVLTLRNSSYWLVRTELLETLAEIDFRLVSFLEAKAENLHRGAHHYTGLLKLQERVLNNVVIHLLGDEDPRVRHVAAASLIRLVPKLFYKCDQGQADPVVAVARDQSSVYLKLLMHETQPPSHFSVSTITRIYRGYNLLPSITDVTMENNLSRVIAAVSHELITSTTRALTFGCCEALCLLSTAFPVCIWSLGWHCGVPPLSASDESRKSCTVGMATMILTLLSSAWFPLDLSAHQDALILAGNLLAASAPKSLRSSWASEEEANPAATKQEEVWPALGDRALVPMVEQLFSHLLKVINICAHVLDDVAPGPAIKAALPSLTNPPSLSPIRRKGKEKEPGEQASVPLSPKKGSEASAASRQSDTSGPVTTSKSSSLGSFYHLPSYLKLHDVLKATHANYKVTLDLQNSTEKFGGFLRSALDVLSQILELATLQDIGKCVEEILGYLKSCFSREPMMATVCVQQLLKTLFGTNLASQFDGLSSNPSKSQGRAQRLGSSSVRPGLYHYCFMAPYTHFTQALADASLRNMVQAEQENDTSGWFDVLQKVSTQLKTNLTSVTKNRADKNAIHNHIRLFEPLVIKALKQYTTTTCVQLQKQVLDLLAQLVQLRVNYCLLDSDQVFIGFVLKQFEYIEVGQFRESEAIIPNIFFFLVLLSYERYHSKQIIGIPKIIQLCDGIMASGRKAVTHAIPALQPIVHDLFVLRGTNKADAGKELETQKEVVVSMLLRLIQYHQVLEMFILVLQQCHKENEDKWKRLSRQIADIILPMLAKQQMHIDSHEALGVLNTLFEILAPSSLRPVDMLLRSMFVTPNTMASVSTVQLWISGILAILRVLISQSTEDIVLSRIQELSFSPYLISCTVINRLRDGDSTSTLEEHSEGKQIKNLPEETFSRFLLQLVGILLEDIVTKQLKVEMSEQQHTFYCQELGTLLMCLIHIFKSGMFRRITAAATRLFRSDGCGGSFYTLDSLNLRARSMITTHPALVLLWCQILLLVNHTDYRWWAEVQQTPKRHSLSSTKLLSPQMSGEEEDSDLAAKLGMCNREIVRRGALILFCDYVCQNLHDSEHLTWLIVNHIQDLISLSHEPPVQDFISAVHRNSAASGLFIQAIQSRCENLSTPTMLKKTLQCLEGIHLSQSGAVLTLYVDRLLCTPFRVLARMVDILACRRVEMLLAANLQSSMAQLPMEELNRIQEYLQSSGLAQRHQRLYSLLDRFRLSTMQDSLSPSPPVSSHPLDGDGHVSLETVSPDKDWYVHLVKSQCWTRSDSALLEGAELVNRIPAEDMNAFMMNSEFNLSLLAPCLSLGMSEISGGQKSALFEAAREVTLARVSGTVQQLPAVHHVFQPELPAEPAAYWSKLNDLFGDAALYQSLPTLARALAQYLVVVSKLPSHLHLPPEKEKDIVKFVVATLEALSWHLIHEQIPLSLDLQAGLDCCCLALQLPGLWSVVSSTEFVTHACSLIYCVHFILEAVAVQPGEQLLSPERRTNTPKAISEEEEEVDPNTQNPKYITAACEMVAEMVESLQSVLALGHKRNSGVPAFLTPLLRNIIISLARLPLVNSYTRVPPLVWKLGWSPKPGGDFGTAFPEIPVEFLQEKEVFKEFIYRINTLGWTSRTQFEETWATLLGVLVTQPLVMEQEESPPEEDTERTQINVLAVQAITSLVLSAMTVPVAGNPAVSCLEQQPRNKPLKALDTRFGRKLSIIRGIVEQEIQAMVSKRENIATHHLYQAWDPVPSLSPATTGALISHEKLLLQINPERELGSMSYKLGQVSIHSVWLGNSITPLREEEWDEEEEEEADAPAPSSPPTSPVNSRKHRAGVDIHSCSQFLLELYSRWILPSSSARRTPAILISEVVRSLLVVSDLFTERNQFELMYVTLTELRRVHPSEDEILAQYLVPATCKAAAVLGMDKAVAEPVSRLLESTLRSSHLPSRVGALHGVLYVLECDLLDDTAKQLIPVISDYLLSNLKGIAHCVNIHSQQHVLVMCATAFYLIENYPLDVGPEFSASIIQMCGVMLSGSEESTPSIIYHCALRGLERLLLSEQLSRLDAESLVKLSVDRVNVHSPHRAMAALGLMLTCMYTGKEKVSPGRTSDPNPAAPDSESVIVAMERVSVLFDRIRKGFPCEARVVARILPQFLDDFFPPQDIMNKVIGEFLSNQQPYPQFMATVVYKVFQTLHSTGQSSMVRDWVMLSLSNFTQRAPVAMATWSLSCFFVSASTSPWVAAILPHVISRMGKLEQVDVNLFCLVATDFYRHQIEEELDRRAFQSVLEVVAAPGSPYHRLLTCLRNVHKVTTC

[1] = target: T1, Phosphatidylinositol 5-phosphate 4-kinase type-2 gamma (Homo sapiens, UniProt Q8TBX8); assay: Inhibition of PIP5K2C (unknown origin)
T1 sequence (Q8TBX8 whole entry): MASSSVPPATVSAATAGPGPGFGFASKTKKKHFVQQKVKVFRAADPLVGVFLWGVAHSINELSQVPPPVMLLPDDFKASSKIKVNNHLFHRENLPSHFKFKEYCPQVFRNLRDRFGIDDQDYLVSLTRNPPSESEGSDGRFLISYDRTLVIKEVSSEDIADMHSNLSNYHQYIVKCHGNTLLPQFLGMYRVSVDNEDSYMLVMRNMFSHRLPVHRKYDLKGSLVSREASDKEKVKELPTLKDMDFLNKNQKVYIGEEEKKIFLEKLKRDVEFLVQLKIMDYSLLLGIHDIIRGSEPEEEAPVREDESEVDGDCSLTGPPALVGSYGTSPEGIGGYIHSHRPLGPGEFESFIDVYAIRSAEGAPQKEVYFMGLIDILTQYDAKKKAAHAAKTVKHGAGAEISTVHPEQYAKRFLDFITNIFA

[2] = Stability in mouse liver microsomes assessed as parent compound remaining at 5 uM incubated for 60 mins in presence of NADPH; format: ADME; settings: read-out: Stability
[3] = Stability in mouse liver microsomes assessed as parent compound remaining at 5 uM incubated for 60 mins in absence of NADPH; format: ADME; settings: read-out: Stability
STHdhQ111 [4] = assay: Cytoprotective activity in mouse STHdhQ111 cells assessed as protection against beta-amyloid-induced cell death at 10 nM to 1 uM by MTT assay; format: functional, cell-based
STHdhQ111 [5] = assay: Cytoprotective activity in mouse STHdhQ111 cells assessed as protection against H2O2-induced cell death at 10 nM to 1 uM by MTT assay; format: functional, cell-based
STHdhQ111 [6] = assay: Cytoprotective activity in mouse STHdhQ111 cells against serum free medium-induced apoptotic cell death assessed as inhibition of caspase-3 activation incubated for 16 hrs; format: functional, cell-based
STHdhQ111 [7] = assay: Cytoprotective activity in mouse STHdhQ111 cells against serum free medium-induced apoptotic cell death assessed as inhibition of caspase-9 activation incubated for 16 hrs; format: functional, cell-based
[8] = Stability in mouse liver microsomes assessed as parent compound remaining at 1 uM incubated for 60 mins in presence of NADPH; format: ADME; settings: read-out: Stability
[9] = Stability in mouse liver microsomes assessed as parent compound remaining at 1 uM incubated for 60 mins in absence of NADPH; format: ADME; settings: read-out: Stability

| AC50 (Huntingtin) | Kd [1] | Structure (SMILES) | also measured |
| --- | --- | --- | --- |
| 39.8 µM | 3.55 µM | Cn1nnnc1Sc1ncnc2scc(-c3ccccc3)c12 | – |
| 31.6 µM | 3.98 µM | Cn1nnnc1Sc1ncnc2scc(-c3cccc(N)c3)c12 | – |
| 22.4 µM | 11.2 µM | Cn1nnnc1Sc1ncnc2scc(-c3cccc(Cl)c3)c12 | – |
| 20 µM | 12.6 µM | Cn1nnnc1Sc1ncnc2scc(-c3ccc(F)cc3)c12 | Activity (STHdhQ111 [6]): Active; Activity (STHdhQ111 [7]): Active |
| – | 14.1 µM | Cn1nnnc1Sc1ncnc2scc(-c3ccccc3Cl)c12 | – |
| 35.5 µM | 7.94 µM | Cn1nnnc1Sc1ncnc2scc(-c3ccsc3)c12 | – |
| 5.01 µM | 1.12 µM | Cn1nnnc1Sc1ncnc2scc(Br)c12 | – |
| 35.5 µM | 11.2 µM | Cc1cccc(-c2csc3ncnc(Sc4nnnn4C)c23)c1 | – |
| 35.5 µM | 0.89 µM | Cn1nnnc1Sc1ncnc2scc(I)c12 | – |
| – | 44.7 µM | Cc1ccccc1-c1csc2ncnc(Sc3nnnn3C)c12 | – |
| 39.8 µM | 14.1 µM | Cc1ccc(-c2csc3ncnc(Sc4nnnn4C)c23)cc1 | – |
| 14.1 µM | 6.31 µM | Cn1nnnc1Sc1ncnc2scc(-c3cccc(F)c3)c12 | – |
| 35.5 µM | 39.8 µM | Cn1nnnc1Sc1ncnc2scc(-c3ccc(Br)cc3)c12 | – |
| 35.5 µM | 2.82 µM | Cn1nnnc1Sc1ncnc2scc(-c3cccc(Br)c3)c12 | – |
| – | 5.62 µM | Cn1nnnc1Sc1ncnc2scc(-c3ccc(N)cc3)c12 | – |
| 31.6 µM | 5.62 µM | Cn1nnnc1Sc1ncnc2scc(-c3ccc[nH]3)c12 | – |
| 35.5 µM | 2.82 µM | Cn1nnnc1Sc1ncnc2scc(-c3cccs3)c12 | remaining at 1 h, 1 µM [8]: 0%; remaining at 1 h, 1 µM [9]: 88% |

The remaining lines, values behind:

| Structure (SMILES) | AC50 (Huntingtin) | Kd [1] | also measured |
| --- | --- | --- | --- |
| Cn1nnnc1Sc1ncnc2scc(-c3ccc(Cl)cc3)c12 | 39.8 µM | 28.2 µM | – |
| Cn1nnnc1Sc1ncnc2scc(-c3cccc4c3sc3ccccc34)c12 | 35.5 µM | > 100 µM | – |
| Cn1nnnc1Sc1ncnc2scc(-c3cccc(C(F)(F)F)c3)c12 | 35.5 µM | 6.3 µM | – |
| Cn1nnnc1Sc1ncnc2scc(-c3ccc(C#N)cc3)c12 | 35.5 µM | 12.6 µM | – |
| Cn1nnnc1Sc1ncnc2scc(-c3cccc4ccccc34)c12 | 35.5 µM | > 100 µM | – |
| Cn1nnnc1Sc1ncnc2scc(-c3ccc([N+](=O)[O-])cc3)c12 | 35.5 µM | 6.31 µM | – |
| COc1cccc(-c2csc3ncnc(Sc4nnnn4C)c23)c1 | 28.2 µM | 3.98 µM | – |
| Cn1nnnc1Sc1ncnc2scc(-c3ccccc3F)c12 | 35.5 µM | 6.31 µM | – |
| CS(=O)(=O)c1cccc(-c2csc3ncnc(NCCN)c23)c1 | – | > 100 µM | – |
| COc1ccc(-c2csc3ncnc(Sc4nnnn4C)c23)cc1 | 39.8 µM | 11.2 µM | – |
| Cn1nnnc1Sc1ncnc2scc(-c3cccc(S(C)(=O)=O)c3)c12 | 39.8 µM | 0.63 µM | remaining at 1 h, 5 µM [2]: 70%; remaining at 1 h, 5 µM [3]: 89% |
| Cn1nnnc1Sc1ncnc2scc(-c3cc4ccccc4o3)c12 | 7.94 µM | 2.82 µM | – |
| Cn1nnnc1Sc1ncnc2scc(-c3ccc4c(c3)OCO4)c12 | 20 µM | 12.6 µM | – |
| CC(=O)c1cccc(-c2csc3ncnc(Sc4nnnn4C)c23)c1 | 28.2 µM | – | Activity (STHdhQ111 [4]): Active; Activity (STHdhQ111 [5]): Active |
| Cn1nnnc1Sc1ncnc2scc(-c3cccc(C#N)c3)c12 | 35.5 µM | 2.51 µM | – |
| Cn1nnnc1Sc1ncnc2scc(-c3ccc(-c4ccccc4)cc3)c12 | 28.2 µM | > 100 µM | – |
| CC(=O)c1ccccc1-c1csc2ncnc(Sc3nnnn3C)c12 | – | 44.7 µM | – |
| Cn1nnnc1Sc1ncnc2scc(-c3ccc4ccccc4c3)c12 | 15.8 µM | 63.1 µM | – |
| CC(=O)c1ccc(-c2csc3ncnc(Sc4nnnn4C)c23)cc1 | 39.8 µM | – | remaining at 1 h, 1 µM [8]: 2%; remaining at 1 h, 1 µM [9]: 91% |
| Cn1nnnc1Sc1ncnc2scc(-c3ccccc3C(F)(F)F)c12 | 28.2 µM | 63.1 µM | – |
| Cn1nnnc1Sc1ncnc2scc(-c3ccc(C(=O)OC(C)(C)C)cc3)c12 | 35.5 µM | > 100 µM | – |
| Cn1nnnc1Sc1ncnc2scc(-c3ccc(S(C)(=O)=O)cc3)c12 | 15.8 µM | 7.94 µM | – |
| Cn1nnnc1Sc1ncnc2scc(-c3ccc4c(=O)ccoc4c3)c12 | 35.5 µM | 1.99 µM | – |
| Cn1nnnc1Sc1ncnc2scc(-c3ccc(C(F)(F)F)cc3)c12 | 35.5 µM | > 100 µM | – |
| Cn1nnnc1Sc1ncnc2scc(-c3cccc([N+](=O)[O-])c3)c12 | 35.5 µM | 1.58 µM | – |
| Cn1nnnc1Sc1ncnc2scc(-c3ccccc3C#N)c12 | – | 6.3 µM | – |
| COc1ccccc1-c1csc2ncnc(Sc3nnnn3C)c12 | 31.6 µM | 79.4 µM | – |
| Cn1nnnc1Sc1ncnc2scc(-c3ccccc3[N+](=O)[O-])c12 | 15.8 µM | 11.2 µM | – |
